Where two headings read alike, the source gives them in different places.
How the values were obtained:
Csk = molecular target: T1, Csk (Homo sapiens, UniProt P41240); test: Csk tyrosine kinase activity, poly E4Y and 32P-ATP; type: biochemical
T1 construct: GST (glutathione-S-transferase) (N); made in house; host or cells: E. coli (pGEX vector)
Method: Recombinant human Src was expressed using the baculovirus-insect cell system and purified as published (Budde et al., 1993 and 2000). Recombinant Csk and the FGF receptor (FGFr) were expressed as glutathione-S-transferase fusion proteins using the pGEX expression vector and E. coli, and purified as described (Sun & Budde, 1995).
The tyrosine kinase activity of Src, Csk and FGFr was determined using poly E4Y and ^32P-ATP. Briefly, enzymes were assayed in a reaction mixture consisting of 0.15 M EPPS-NaOH (pH 8.0) with 6 mM MgCl2, 0.2 mM γ^32P-ATP (0.2-0.4 mCi/μmol), 10% glycerol, 0.1% Triton X-100, and poly E4Y. Poly E4Y is a synthetic peptide whose phosphorylation is measured in this assay by the addition of the radioactively labeled phosphate from the ATP (Budde et al., 1995). […] When ATP was varied (0, 50, 100 and 250 μM), poly E4Y was kept constant at 150 μg/ml.

Recombinant human Src = molecular target: T2, Recombinant human Src (Homo sapiens, UniProt P12931); test: Src tyrosine kinase activity, poly E4Y and 32P-ATP; type: biochemical
T2 construct: made in house; host or cells: baculovirus-insect cell system
How it was run: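 Recombinant GST-Csk (E. coli) or baculovirus-expressed human Src assayed on poly E4Y in 0.15 M EPPS-NaOH pH 8.0, 6 mM MgCl2, 0.2 mM γ32P-ATP, 10% glycerol, 0.1% Triton X-100. Read-out is 32P incorporation into poly E4Y; for ATP variation (0–250 μM), poly E4Y held at 150 μg/ml.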

[1] = screening assay, 50 μg/ml poly E4Y, 0.2 mM 32P-ATP
[2] = Table 2, read-out: Src IC50 (especially good inhibitors of Src)
[3] = read-out: IC50 (preferred compounds for treatment of Src family-related disease)

T2 sequence (P12931 whole entry): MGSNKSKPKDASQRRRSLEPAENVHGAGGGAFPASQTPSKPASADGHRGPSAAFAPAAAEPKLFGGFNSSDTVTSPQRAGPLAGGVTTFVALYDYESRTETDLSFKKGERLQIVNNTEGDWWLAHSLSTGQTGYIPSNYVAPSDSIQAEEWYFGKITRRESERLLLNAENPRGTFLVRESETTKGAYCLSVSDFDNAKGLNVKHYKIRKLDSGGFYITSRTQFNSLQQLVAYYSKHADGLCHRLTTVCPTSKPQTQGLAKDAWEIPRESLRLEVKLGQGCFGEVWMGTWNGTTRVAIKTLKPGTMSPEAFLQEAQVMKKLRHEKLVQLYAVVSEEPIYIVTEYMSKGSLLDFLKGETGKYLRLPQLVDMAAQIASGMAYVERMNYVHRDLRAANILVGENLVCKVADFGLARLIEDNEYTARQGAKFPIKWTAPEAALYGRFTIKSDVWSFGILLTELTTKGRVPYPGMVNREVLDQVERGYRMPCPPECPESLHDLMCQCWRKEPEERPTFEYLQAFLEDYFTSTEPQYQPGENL

| IC50 (Csk; [1]) [nM] | IC50 (Recombinant human Src; [2]) [nM] | IC50 (Recombinant human Src; [3]) [nM] | IC50 (Csk; poly E4Y and 32P-ATP) [nM] | Structure (SMILES) |
| --- | --- | --- | --- | --- |
| > 127000 | ≤ 2000 | < 2000 |  | Cc1c(I)sc2c(NN=Cc3cccnc3)ncnc12 [Compound 372, 3-Pyridinecarboxaldehyde(6-iodo-7-methylthieno[3,2-d]pyrimidin-4-yl)hydrazone] |
| > 114000 | ≤ 2000 | < 2000 |  | COc1ccc(C=NNc2ncnc3c(C)c(I)sc23)cc1O [Compound 375, 3-Hydroxy-4-methoxybenzaldehyde(6-iodo-7-methylthieno[3,2-d]pyrimidin-4-yl)hydrazone] |
| > 142000 | ≤ 2000 | < 2000 |  | Cc1c(-c2ccsc2)sc2c(NN=Cc3cccnc3)ncnc12 [Compound 379, 3-Pyridinecarboxaldehyde(7-methyl-6-(3-thienyl)thieno[3,2-d]pyrimidin-4-yl)hydrazone] |
| > 140000 | ≤ 2000 | < 2000 |  | Cc1c(-c2ccsc2)sc2c(NN=Cc3cccs3)ncnc12 [Compound 381, 2-Thiopnhenecarboxaldehyde(7-methyl-6-(3-thienyl)thieno[3,2-d]pyrimidin-4-yl)hydrazone] |
| > 132000 | ≤ 2000 | < 2000 |  | Cc1c(-c2ccccc2Cl)sc2c(NN=Cc3cccnc3)ncnc12 [Compound 389, 3-Pyridinecarboxaldehyde(6-(2-chlorophenyl)7-methylthieno[3,2-d]pyrimidin-4-yl)hydrazone] |
| > 130000 | ≤ 2000 | < 2000 |  | Cc1c(-c2ccccc2Cl)sc2c(NN=Cc3cccs3)ncnc12 [Compound 391, 2-Thiophenecarboxaldehyde(6-(2-chlorophenyl)7-methylthieno[3,2-d]pyrimidin-4-yl)hydrazone] |
| > 131000 | ≤ 2000 | < 2000 |  | Ic1cc2ncnc(NN=Cc3cccnc3)c2s1 [Compound 394, 3-Pyridinecarboxaldehyde(6-iodothieno[3,2-d]pyrimidin-4-yl)hydrazone] |
| > 117000 | ≤ 2000 | < 2000 |  | COc1ccc(C=NNc2ncnc3cc(I)sc23)cc1O [Compound 397, 3-Hydroxy-4-Methoxybenzaldehyde(6-iodothieno[3,2-d]pyrimidin-4-yl)hydrazone] |
| > 123000 | ≤ 2000 | < 2000 |  | COc1ccc(-c2cc3ncnc(NN=Cc4ccc(OC)c(O)c4)c3s2)cc1 [Compound 408, 3-Hydroxy-4-methoxybenzaldehyde(6-(4-methoxyphenyl)thieno[3,2-d]pyrimidin-4-yl)hydrazone] |
| > 133000 | ≤ 2000 | < 2000 |  | COc1ccc(-c2sc3c(NN=Cc4cccnc4)ncnc3c2C)cc1 [Compound 422, 3-Pyridinecarboxaldehyde(6-(4-methoxyphenyl)-7-methylthieno[3,2-d]pyrimidin-4-yl)hydrazone] |
| > 119000 | ≤ 2000 | < 2000 |  | COc1ccc(-c2sc3c(NN=Cc4ccc(OC)c(O)c4)ncnc3c2C)cc1 [Compound 425, 3-Hydroxy-4-methoxybenzaldehyde(6-(4-methoxyphenyl)-7-methylthieno[3,2-d]pyrimidin-4-yl)hydrazone] |
| > 133000 | ≤ 2000 | < 2000 |  | COc1cccc(-c2sc3c(NN=Cc4cccnc4)ncnc3c2C)c1 [Compound 426, 3-Pyridinecarboxaldehyde(6-(3-methoxyphenyl)-7-methylthieno[3,2-d]pyrimidin-4-yl)hydrazone] |
| > 131000 | ≤ 2000 | < 2000 |  | COc1cccc(-c2sc3c(NN=Cc4cccs4)ncnc3c2C)c1 [Compound 428, 2-Thiophenecarboxaldehyde(6-(3-methoxyphenyl)-7-methylthieno[3,2-d]pyrimidin-4-yl)hydrazone] |
| > 119000 | ≤ 2000 | < 2000 |  | COc1cccc(-c2sc3c(NN=Cc4ccc(OC)c(O)c4)ncnc3c2C)c1 [Compound 429, 3-Hydroxy-4-methoxybenzaldehyde(6-(3-methoxyphenyl)-7-methylthieno[3,2-d]pyrimidin-4-yl)hydrazone] |
| > 133000 | ≤ 2000 | < 2000 |  | COc1ccccc1-c1sc2c(NN=Cc3cccnc3)ncnc2c1C [Compound 432, 3-Pyridinecarboxaldehyde(6-(2-methoxyphenyl)-7-methylthieno[3,2-d]pyrimidin-4-yl)hydrazone] |
| > 133000 | ≤ 2000 | < 2000 |  | Cc1c(-c2ccc(CO)cc2)sc2c(NN=Cc3cccnc3)ncnc12 [Compound 436, 3-Pyridinecarboxaldehyde(6-(4-hydroxymethylphenyl)-7-methylthieno[3,2-d]pyrimidin-4-yl)hydrazone] |
| > 131000 | ≤ 2000 | < 2000 |  | Cc1c(-c2ccc(CO)cc2)sc2c(NN=Cc3cccs3)ncnc12 [Compound 438, 2-Thiophenecarboxaldehyde(6-(4-hydroxymethylphenyl)-7-methylthieno[3,2-d]pyrimidin-4-yl)hydrazone] |
| > 119000 | ≤ 2000 | < 2000 |  | COc1ccc(C=NNc2ncnc3c(C)c(-c4ccc(CO)cc4)sc23)cc1O [Compound 439, 3-Hydroxy-4-methoxybenzaldehyde(6-(4-hydroxymethylphenyl)-7-methylthieno[3,2-d]pyrimidin-4-yl)hydrazone] |
| > 131000 | ≤ 2000 | < 2000 |  | Cc1c(-c2cccc(CO)c2)sc2c(NN=Cc3cccs3)ncnc12 [Compound 442, 2-Thiophenecarboxaldehyde(6-(3-hydroxymethylphenyl)-7-methylthieno[3,2-d]pyrimidin-4-yl)hydrazone] |
| > 135000 | ≤ 2000 | < 2000 |  | Cc1c(/C=C/c2ccccc2)sc2c(NN=Cc3cccnc3)ncnc12 [Compound 447, 3-Pyridinecarboxaldehyde(7-methyl-6-(trans-2-phenylvinyl)-thieno[3,2-d]pyrimidin-4-yl)hydrazone] |
|  | ≤ 2000 | < 2000 | > 101000 | COc1ccc(C=NNc2ncnc3c(C)c(C(Cc4ccccc4)c4ccccc4)sc23)cc1O (stereo not drawn) [Compound 475, 3-Hydroxy-4-methoxybenzaldehyde(6-(1-benzyl-1-phenyl)methyl-7-methylthieno[3,2-d]pyrimidin-4-yl)hydrazone] |

Source: US7285556B2, “Thienopyrimidine-based inhibitors of the src family” (Board of Regents, The University of Texas Systems, priority 2000, dated 2007)
